The subject of test [1] is mycobacterial outer membrane permeability. Description: Ethidium bromide (EtBr) uptake assay. Type of test: cell-based, Mycobacterium tuberculosis. The note with it: 10 μM. The method, then:
(§1) Bacteria were grown for 24 hours in the presence of test compounds. The BacTiter-Glo microbial cell viability reagent (Promega) was used for the quantification of ATP according to the recommendations of the manufacturer. For EtBr uptake assays, bacteria were washed with PBS containing 0.05% Tween 80, OD600 was adjusted to 0.4 and 100 μl were pipetted into black 96 well plates. EtBr was added (4 μM final concentration) and fluorescence was read every 2 min. at 545/600 nm. Unpaired Student's T-tests were used for statistical analyses.
To investigate whether BBH7 alters mycobacterial outer membrane permeability, which might explain the transcriptomic pattern associated with metal-ion toxicity, the Applicant performed ethidium bromide (EtBr) uptake assays after treatment with the compounds of interest. These assays identify altered outer membrane permeability by an increase of fluorescence after binding of EtBr to bacterial nucleic acids. […] This was not observed with BTP15.

The test system of another test is ATP-levels of Mtb. Description: Quantification of intracellular ATP levels. The note with it: 10 μM, 24 hours. It counts as cell-based, Mycobacterium tuberculosis. The method, then:
as §1

Another test has as its system Mtb transcriptome. In words: RNA-seq and qRT-PCR of compound-treated Mtb. Type of test: cell-based, Mycobacterium tuberculosis. The following applies: RNA-seq, 5 μM. On the procedure:
For the transcriptomic studies, bacteria were grown under the same conditions as for protein secretion assays. Drug exposure time was 8 hours with 5 μM of compound for RNA-seq experiments and confirmatory qRT-PCR. RNA was extracted with Trizol (Invitrogen) and treated with DNase I (Roche) prior to library preparation or generation of the cDNA template. cDNA was synthesized using the RevertAid First Strand cDNA Synthesis Kit (Fermentas) using random hexamer primer. cDNA corresponding to 10 ng of input RNA was used in each RT-PCR reaction supplemented with specific primer pairs (200 nM each) listed in Table S4 and SYBR-Green master mix (Applied Biosystems). Quantitative RT-PCR reactions were performed with the 7900HT Fast Real-Time PCR System (Applied Biosystems) with the following parameters: 50° C. for 2 min, 95° C. for 10 min, followed by 40 cycles of 95° C. for 15 s and 60° C. for 60 s. Melt curve analysis was used to confirm specific amplification for each primer pair. Unpaired Student's T-tests were used for statistical analyses.
For the RNA-seq library preparation 100 ng of total RNA were used in the TruSeq Stranded mRNA LT kit, according to the instructions provided by the manufacturer (Illumina). A small aliquot was analyzed on Qubit and Fragment Analyzer prior to sequencing on Illumina HiSeq using the TruSeq SR Cluster Generation Kit v3 and TruSeq SBS Kit v3. Data were processed with the Illumina Pipeline Software v1.82. RNA-seq data were deposited in the Gene Expression Omnibus (GEO) server at the National Center for Biotechnology Information (NCBI).
• All analyses in this study were carried out using the M. tuberculosis H37Rv annotation from the TubercuList database (http://tuberculist.epfl.ch/) (Lew et al., 2011). There are 4019 protein coding sequences (CDS) currently annotated in the genome, 73 genes encoding for stable RNAs, small RNAs and tRNAs. In order to quantify protein occupancy and transcription across the entire genome, 3080 intergenic regions (regions flanked by two non-overlapping CDS) were included, resulting in a total of 7172 features. • The single-ended sequence reads generated from RNA-seq experiments were aligned to the M. tuberculosis H37Rv genome (NCBI accession NC_000962.2) using Bowtie2 with default parameters (Langmead and Salzberg, 2012). Read counts for all annotated features were obtained with the htseq-count program (http://www.huber.embl.de/users/anders/HTSeq/doc/count.html). Regions where genes overlapped were excluded from counting. Reads spanning more than one feature were counted for each feature. Since the RNA library was strand-specific, the orientation of sequence reads had to correspond to the orientation of annotated features to be counted. Analysis of differential gene expression was carried out using the DESeq package (Anders and Huber, 2010).

A further test relates to MRC-5 lung fibroblasts. In words: Fibroblast survival assay (FSA). It counts as cell-based. The following applies: Homo sapiens, MRC5; read-out: IC50 of protection of fibroblasts.

Usually IC50 stands for the concentration needed to halve the response being measured. For `CSC(=S)N/N=C(\C)c1ccc(OCc2ccc(F)cc2F)cc1` [BBH7, N′-{1-[4-(2,4-Difluoro-benzyloxy)-phenyl]ethylidene}-hydrazinecarbodithioic acid methyl ester], the “EtBr accumulation and fluorescence” value in test [1] was “increases EtBr accumulation and fluorescence”. Besides, the “mycobacterial ATP levels” value in the test on ATP-levels of Mtb is on record as “not found to be reduced”. In the test with Mtb transcriptome, the “upregulated genes (number)” value amounted to 121 genes and the “upregulation of the metallothionein mymT” value is listed as 20 fold. For the same compound, the “differentially regulated genes (number)” value in the test with Mtb transcriptome (8 hours) turned out to be 144 genes. Further, the IC50 in the test with MRC-5 lung fibroblasts was 2400 nM.

Values taken from US20170240522A1, “BENZOTHIOPHENE, BENZYLOXYBENZYLIDENE AND INDOLINE DERIVATIVES USEFUL FOR THE TREATMENT OF TUBERCULOSIS” (priority 2014, published 2017).
